Results as given in patent publication US20240262806A1, “INHIBITORS OF NLRP3” (PTC THERAPEUTICS, INC., priority 2021, published 2024).

Each compound was assayed on NLRP3 inflammasome (assay: IL-1β Secretion Assay (NLRP3-dependent IL-1β secretion in PMA-differentiated THP-1 cells, nigericin activation, HTRF)). Settings: Homo sapiens, THP-1, THP-1 cells, 100 ng/mL PMA 24 h, compound 20 h, 2.5 μM Nigericin 3 h; read-out: IC50 IL-1β Inhibition.
Type: cell-based
Procedure, shortened: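 IL-1β release, quantified by HTRF after nigericin activation of the NLRP3 inflammasome, was the read-out. A logistic fit of percent inhibition gave IC50.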
Work on `Oc1cc(C(F)(F)F)ccc1-c1nnc(N[C@@H]2CCCN(C3CC3)C2)c2cnccc12` [Compound I-215, 2-[4-[[(3R)-1-cyclopropyl-3-piperidyl]amino]pyrido[3,4-d]pyridazin-1-yl]-5-(trifluoromethyl)phenol] yielded an IC50 of less than 0.001 µM. `Cc1ccc(-c2nnc(N[C@@H]3CCCN(C)C3)c3cnccc23)c(C)c1` [Compound I-216] was tested, and the IC50 was 0.001 to 0.01 µM. In the case of `Cc1cc(C#N)ccc1-c1nnc(N[C@@H]2CCCN(C)C2)c2cnccc12` [Compound I-217], the IC50 is reported as 0.01 to 0.1 µM. `Cc1cc(Cl)cc(C)c1-c1nnc(N[C@@H]2CCCN(C)C2)c2cnccc12` [Compound I-218] gave an IC50 of less than 0.001 µM. With `O=C(c1ccc(-c2nnc(N[C@@H]3CCCNC3)c3ccccc23)c(O)c1)C(F)(F)F` [Compound I-220] the IC50 was 0.1 to 0.3 µM. `CN1CCC[C@@H](Nc2nnc(-c3c(F)cc(Cl)cc3F)c3ccncc23)C1` [Compound I-221] was tested, and the IC50 was 0.001 to 0.01 µM. `Cc1cc(C(F)(F)F)cc(F)c1-c1nnc(N[C@@H]2CCCN(C)C2)c2cnccc12` [Compound I-222] gave an IC50 of 0.001 to 0.01 µM. Work on `CN1CCC(Nc2nnc(-c3ccc(C(F)(F)F)cc3O)c3ccncc23)CC1` [Compound I-224] yielded an IC50 of 0.01 to 0.1 µM. Compound `C#Cc1ccc(-c2nnc(N[C@@H]3CCCN(C)C3)c3ccccc23)c(O)c1` [Compound I-226, (R)-5-ethynyl-2-(4-((1-methylpiperidin-3-yl)amino)phthalazin-1-yl)phenol] has an IC50 of less than 0.001 µM. In the case of `CC#Cc1ccc(-c2nnc(N[C@@H]3CCCN(C)C3)c3ccccc23)c(O)c1` [Compound I-227], the IC50 is reported as less than 0.001 µM. Compound `CC#Cc1cc(C(F)(F)F)ccc1-c1nnc(N[C@@H]2CCCN(C)C2)c2cnccc12` [Compound I-228, (R)—N-(1-methylpiperidin-3-yl)-1-(2-(prop-1-yn-1-yl)-4-(trifluoromethyl)phenyl)pyrido[3,4-d]pyridazin-4-amine] has an IC50 of 0.001 to 0.01 µM. `Oc1cc(C(F)(F)F)ccc1-c1nnc(NC2CNCCOC2)c2ccncc12` (stereo not drawn) [Compound I-230] was tested, and the IC50 was 0.01 to 0.1 µM. Compound `FC(F)Oc1cc(C(F)(F)F)ccc1-c1nnc(N[C@@H]2CCCNC2)c2ccncc12` [Compound I-231] has an IC50 of 0.01 to 0.1 µM. Compound `CN1CCC[C@@H](Nc2nnc(-c3ccc(C(F)(F)F)cc3-c3ccn(C)n3)c3ccncc23)C1` [Compound I-232] has an IC50 of 0.01 to 0.1 µM. `COc1cc(C(F)F)ccc1-c1nnc(N[C@@H]2CCCN(C)C2)c2cnccc12` [Compound I-234] was tested, and the IC50 was 0.01 to 0.1 µM. Compound `CCN1CCC[C@@H](Nc2nnc(-c3ccc(C(F)(F)F)cc3OC(F)F)c3cnccc23)C1` [Compound I-235] has an IC50 of 0.001 to 0.01 µM. `CN1CCC[C@@H](Nc2nnc(-c3ccc(C(F)(F)F)cc3OC(F)F)c3c2CCC3)C1` [Compound I-236] gave an IC50 of 0.001 to 0.01 µM. For `CN1CCC[C@@H](Nc2nnc(-c3ccc(OC4CC4)cc3O)c3ccncc23)C1` [Compound I-237, (R)-5-Cyclopropoxy-2-(4-((1-methylpiperidin-3-yl)amino)pyrido[3,4-d]pyridazin-1-yl)phenol], the IC50 was 0.001 to 0.01 µM. Work on `OCCN1CCC[C@@H](Nc2nnc(-c3ccc(C(F)(F)F)cc3OC(F)F)c3cnccc23)C1` [Compound I-238] yielded an IC50 of 0.01 to 0.1 µM. For `CN1CCC[C@@H](Nc2nnc(-c3ccc(Cl)cc3C(F)F)c3ccncc23)C1` [Compound I-239], the IC50 was 0.001 to 0.01 µM. `CN1CCC[C@@H](Nc2nnc(-c3ccc(C(F)(F)F)cc3-c3cccnc3)c3ccncc23)C1` [Compound I-240] was tested, and the IC50 was 0.1 to 0.3 µM. For `CN1CCC[C@@H](Nc2nnc(-c3ccc(Cl)cc3OC(F)F)c3c2CCC3)C1` [Compound I-241], the IC50 was 0.01 to 0.1 µM. Work on `CN1CCCCC1CNc1nnc(-c2ccc(C(F)(F)F)cc2O)c2ccncc12` (stereo not drawn) [Compound I-243] yielded an IC50 of 0.001 to 0.01 µM. Compound `Cc1ccc(-c2nnc(N[C@@H]3CCCN(C)C3)c3c2CCC3)c(OC(F)F)c1` [Compound I-244] has an IC50 of 0.01 to 0.1 µM. In the case of `CN1CCC[C@@H](Nc2nnc(-c3ccccc3OC(F)F)c3c2CCC3)C1` [Compound I-245], the IC50 is reported as 0.001 to 0.01 µM. With `CN1CCC[C@@H](Nc2nnc(-c3ccc(C4CC4)cc3OC(F)F)c3c2CCC3)C1` [Compound I-246] the IC50 was 0.01 to 0.1 µM. Work on `CN1CCC[C@@H](Nc2nnc(-c3ccc(C4CC4)cc3OC(F)F)c3ccncc23)C1` [Compound I-247] yielded an IC50 of 0.001 to 0.01 µM. With `CN1CCC[C@@H](Nc2nnc(-c3ccc(C4CC4)cc3C(F)F)c3ccncc23)C1` [Compound I-248] the IC50 was 0.001 to 0.01 µM. `CN1CCC[C@@H](Nc2nnc(-c3ccc(C(F)F)cc3F)c3ccncc23)C1` [Compound I-249] was tested, and the IC50 was 0.01 to 0.1 µM. `CN1CCC[C@@H](Nc2nnc(-c3ccc(C(F)(F)F)cc3O)c3cscc23)C1` [Compound I-250] was tested, and the IC50 was less than 0.001 µM. `COc1cc(C(F)(F)F)ccc1-c1nnc(N[C@@H]2CCCCNC2)c2cnccc12` [Compound I-251] was tested, and the IC50 was 0.1 to 0.3 µM. In the case of `Oc1cc(C(F)(F)F)ccc1-c1nnc(N[C@H]2CNCCOC2)c2cnccc12` [Compound I-252], the IC50 is reported as 0.01 to 0.1 µM. Work on `Oc1cc(C(F)(F)F)ccc1-c1nnc(NC2CCCNCC2)c2cnccc12` (stereo not drawn) [Compound I-253] yielded an IC50 of 0.001 to 0.01 µM. Compound `COc1ccc(-c2nnc(N[C@@H]3CCCN(C)C3)c3cnccc23)c(C)c1` [Compound I-254] has an IC50 of 0.001 to 0.01 µM. Compound `Cc1noc2c(-c3ccc(C(F)(F)F)cc3O)nnc(N[C@@H]3CCCN(C)C3)c12` [Compound I-255, 2-[3-methyl-4-[[(3R)-1-methyl-3-piperidyl]amino]isoxazolo[4,5-d]pyridazin-7-yl]-5-(trifluoromethyl)phenol] has an IC50 of 0.001 to 0.01 µM. With `Cc1noc2c(-c3ccc(C(F)(F)F)cc3O)nnc(N[C@@H]3CCCN(CCO)C3)c12` [Compound I-256, 2-[3-methyl-4-[[(3R)-1-(2-hydroxyethyl)-3-piperidyl]amino]isoxazolo[4,5-d]pyridazin-7-yl]-5-(trifluoromethyl)phenol] the IC50 was 0.01 to 0.1 µM. `Oc1cc(C(F)(F)F)ccc1-c1nnc(N[C@@H]2CCCN(C3CC(CC(F)F)C3)C2)c2cnccc12` (stereo partly drawn) [Compound I-257] gave an IC50 of 0.001 to 0.01 µM. Compound `COc1ccc(-c2nnc(N[C@@H]3CCCN(C)C3)c3c2CCC3)c(C(F)(F)F)c1` [Compound I-258] has an IC50 of 0.01 to 0.1 µM. `CN1CCC[C@@H](Nc2nnc(-c3ccc(C(F)(F)F)cc3C(F)(F)F)c3c2CCC3)C1` [Compound I-259] gave an IC50 of 0.01 to 0.1 µM. `CN1CCOCC(Nc2nnc(-c3ccc(C(F)(F)F)cc3O)c3cnccc23)C1` (stereo not drawn) [Compound I-260] gave an IC50 of 0.01 to 0.1 µM. With `Oc1cc(C(F)(F)F)ccc1-c1nnc(N[C@@H]2CCCCNC2)c2cnccc12` [Compound I-261] the IC50 was 0.001 to 0.01 µM. `CN1CCOCC(Nc2nnc(-c3ccc(C(F)(F)F)cc3O)c3ccncc23)C1` (stereo not drawn) [Compound I-262] gave an IC50 of 0.001 to 0.01 µM. Compound `CN1CCCC(Nc2nnc(-c3ccc(C(F)(F)F)cc3O)c3ccncc23)CC1` (stereo not drawn) [Compound I-263] has an IC50 of 0.001 to 0.01 µM. In the case of `CN1CCN(C)CC(Nc2nnc(-c3ccc(C(F)(F)F)cc3O)c3ccncc23)C1` [Compound I-264], the IC50 is reported as 0.01 to 0.1 µM. Work on `CN1C[C@H](Nc2nnc(-c3ccc(C(F)(F)F)cc3O)c3ccncc23)CC(F)(F)C1` [Compound I-265] yielded an IC50 of 0.001 to 0.01 µM. `CCOC(=O)[C@@H]1CC[C@@H](Nc2nnc(-c3ccc(C(F)(F)F)cc3O)c3ccncc23)CN1` [Compound I-266, Ethyl (2S,5R)-5-((1-(2-hydroxy-4-(trifluoromethyl)phenyl)pyrido[3,4-d]pyridazin-4-yl)amino)piperidine-2-carboxylate] gave an IC50 of less than 0.001 µM. `COc1cc(C)cc(O)c1-c1nnc(N[C@@H]2CCCN(C)C2)c2cnccc12` [Compound I-267] gave an IC50 of 0.001 to 0.01 µM. `Cc1cc(O)c(-c2nnc(N[C@@H]3CCCN(C)C3)c3cnccc23)c(O)c1` [Compound I-268] showed an IC50 of less than 0.001 µM. Work on `Oc1cc(C(F)(F)F)ccc1-c1nnc(N[C@@H]2CCCN(C3COC3)C2)c2cnccc12` [Compound I-271] yielded an IC50 of 0.001 to 0.01 µM. With `Cc1cc(C2CC2)ccc1-c1nnc(N[C@@H]2CCCN(C)C2)c2cnccc12` [Compound I-272] the IC50 was 0.001 to 0.01 µM. `Cc1cc(O)c(-c2nnc(N[C@@H]3CCCN(CCO)C3)c3cnccc23)c(F)c1` [Compound I-273] was tested, and the IC50 was less than 0.001 µM. In the case of `CN1CCC[C@@H](Nc2nnc(-c3c(O)cc(C(F)(F)F)cc3C3CC3)c3ccncc23)C1` [Compound I-274, 3-Cyclopropyl-2-[4-[[(3R)-1-methyl-3-piperidyl]amino]pyrido[3,4-d]pyridazin-1-yl]-5-(trifluoromethyl)phenol], the IC50 is reported as 0.001 to 0.01 µM. With `CN(C)C(C)(C)CNc1nnc(-c2ccc(C(F)(F)F)cc2O)c2ccncc12` [Compound I-275] the IC50 was 0.001 to 0.01 µM. `COc1cc(C(F)(F)F)ccc1-c1nnc(N[C@@H]2CCCN(CCOC(F)F)C2)c2cnccc12` [Compound I-276] was tested, and the IC50 was 0.01 to 0.1 µM. `Oc1cc(C(F)(F)F)ccc1-c1nnc(N[C@@H]2CCCN(CC(F)F)C2)c2cnccc12` [Compound I-277] was tested, and the IC50 was less than 0.001 µM. `CN1C[C@@H](F)C[C@H](Nc2nnc(-c3ccc(C(F)(F)F)cc3O)c3ccncc23)C1` [Compound I-278] was tested, and the IC50 was 0.01 to 0.1 µM. For `Oc1cc(C(F)(F)F)ccc1-c1nnc(N[C@@H]2CCCN(C3CCOCC3)C2)c2cnccc12` [Compound I-279], the IC50 was less than 0.001 µM. Compound `CN1C[C@H](F)C[C@@H](Nc2nnc(-c3ccc(C(F)(F)F)cc3O)c3ccncc23)C1` [Compound I-280] has an IC50 of less than 0.001 µM. With `Oc1cc(C(F)(F)F)ccc1-c1nnc(N[C@@H]2CCCN(C3CCOC3)C2)c2cnccc12` (stereo partly drawn) [Compound I-281] the IC50 was less than 0.001 µM. `OCCN1CCC[C@@H](Nc2nnc(-c3c(O)cc(Cl)cc3F)c3ccncc23)C1` [Compound I-282, 5-Chloro-3-fluoro-2-[4-[[(3R)-1-(2-hydroxyethyl)-3-piperidyl]amino]pyrido[3,4-d]-pyridazin-1-yl]phenol] was tested, and the IC50 was less than 0.001 µM. Compound `Oc1cc(C(F)(F)F)ccc1-c1nnc(N[C@@H]2CCCN(CC(F)(F)F)C2)c2cnccc12` [Compound I-283] has an IC50 of less than 0.001 µM. `OCCN1CCC[C@@H](Nc2nnc(-c3c(O)cc(C4CC4)cc3F)c3ccncc23)C1` [Compound I-284, 5-Cyclopropyl-3-fluoro-2-[4-[[(3R)-1-(2-hydroxyethyl)-3-piperidyl]amino]-pyrido[3,4-d]pyridazin-1-yl]phenol] gave an IC50 of less than 0.001 µM. Work on `OCCN1CCC[C@@H](Nc2nnc(-c3c(O)cccc3F)c3ccncc23)C1` [Compound I-285, 3-Fluoro-2-[4-[[(3R)-1-(2-hydroxyethyl)-3-piperidyl]amino]pyrido[3,4-d]pyridazin-1-yl]phenol] yielded an IC50 of 0.001 to 0.01 µM.
